# Where two headings read alike, the source gives them in different places.
# Assays:
# KRAS 4B G12C protein = biological target: T1, KRAS 4B G12C protein (Homo sapiens, UniProt P01116, G12C); assay: In vitro covalent adduct formation (CAF) assay, LC-MS; assay type: binding; conditions: 5 μM KRAS 4B G12C, 10 μM compound, 22° C.
# T1 construct: made in house; host or cells: E. coli BL21
# Description: This Example provides a protocol for assessing covalent adduct formation (CAF) between the compounds provided herein and KRAS.
# In vitro covalent adduct formation assay: Covalent adduct formation (CAF) reactions between Cys12 of the KRAS 4B G12C protein and embodiments of the application were measured in vitro using liquid chromatography-mass spectrometry (LC-MS).
# Recombinant Human KRAS 4B protein containing the G12C mutation was used in compound screening experiments. This protein contained 188 amino acids in total, including an N-terminal 6-Histidine tag, followed by a Tobacco Etch Virus (TEV) tag, followed by residues 1-169 of the native KRAS 4B sequence. The exact mass of the protein was 21,310 Da as determined by mass spectrometry. […]
# The recombinant protein was expressed in E. coli BL21 cells and purified using affinity chromatography via a Ni-NTA column. […] The intact mass of the protein samples was measured by LC-MS using a QExactive+mass spectrometer (Thermo Scientific). An amount of 500 ng total protein was injected onto a C8 reverse phase column, eluted with a seven-minute gradient of 30%-90% acetonitrile/0.10% formic acid, and analyzed for intact mass by the mass spectrometer. Adducts identified were confirmed to be within 1 Dalton of the expected mass, and the relative ratios of free:adduct protein were used to quantify the percentage of protein bound by the compound. […]
# KRAS (WT) = biological target: T2, KRAS (WT) (Homo sapiens, UniProt P01116); assay: In-vitro RAS-RAF binding assay (RRB), HTRF/FRET; assay type: biochemical; conditions: read-out: Inhibition of RAS-RAF Binding (in-vitro) KRAS (WT) IC50
# T2 construct: Biotinylated KRAS protein amino acids 1-169 (produced at Erasca); made in house
# Procedure, shortened: (§1)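 Biotinylated KRAS 1-169 (streptavidin-terbium donor, 30 nM) and GST-cRAF RBD (anti-GST d2 acceptor, 30 nM) in HEPES pH 7.5, NaCl, MgCl2, DTT buffer. After compound incubation, SOS1 catalytic domain plus GTPgS drive 60 min nucleotide exchange. HTRF FRET read at equilibrium, in duplicate.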
# KRAS G12D [1] = biological target: T3, KRAS G12D (Homo sapiens, UniProt P01116, G12D); assay: Degradation of KRas G12D in AsPC-1 cells, Western blot; assay type: cell-based; design: endogenous in cells; host or cells: AsPC-1 (ATCC CRL-1682); conditions: for KRAS G12D degradation (Western blot), result in words: AsPC-1 cells, FIGS. 1-5; for Dmax: ASPC1; for Dmax / DC50: AsPc-1 cell line after 24 h treatment
# Description: This Example illustrates that the compounds presented herein degrade KRAS G12D.
# AsPC-1 cells (ATCC CRL-1682) expressing G12D were grown in RPMI-1640 medium supplemented with 10% fetal bovine serum, and Penicillin/Streptomycin. Cell were plated in 6-well tissue culture plates at a density of 1 million cells/well and allowed to attach for overnight. Diluted compounds were then added in a final concentration of 0.2% DMSO. After 24 hour treatment, the medium was removed, and the plate was washed three times with ice-cold PBS. 50ul of the RIPA cell lysis buffer (ThermoFisher 89901) supplemented with protease inhibitor (Roche 4693116001) and Phosphatase Cocktail A and B inhibitor (Bimake B15002; Bimake Houston TX) was added to each well, the adherent cells were scratched off, and transferred into pre-cold centrifuge tubes. After vigorous vortex, the tubes were incubated on ice for 30 minutes, centrifuged 14,000 rpm for 10 min at 4° C., and the supernatant were transferred into fresh tubes kept on ice. The protein concentration of the supernatant was determined with bicinchoninic acid method (BCA) (ThermoFisher 23227). Samples were prepared to the final concentration of 30ug in 20ul using NuPAGE LDS Sample Buffer (Invitrogen NP0007), NuPAGE Sample Reducing Agent (Invitrogen NP0009), and RIPA cell lysis buffer, and boiled at 95° C. for 15 minutes in water bath.
# The levels of KRAS protein and phosphorylated ERK1/2 were determined by Western blotting. 20 μL of protein sample mixture was loaded into each well of 1.5 mm 4-12% Bis-Tris gel (Invitrogen NP0335), and run at 80V in stacking gel and 120 V in separating gel for about 2 h in MOPS running buffer (Invitrogen NP0001). The gel was transferred to the membrane (20V, 7 min) with Invitrogen iBlot2, and blocked with Li-Cor blocking buffer (LI-COR 927-60001; Li-Cor Biotechnology, Lincoln NE) for at least 1 h at room temperature. Primary antibodies diluted in the blocking buffer were added and incubated at 4° C. overnight. As the primary antibodies, KRAS (Proteintech 12063-1-AP), G12D Mutant Specific KRAS (Cell Signaling Technology 14429S), ERKI1/2 (Cell Signaling Technology 4695S), Phospho-ERKI1/2 (Cell Signaling Technology 4370S), and GAPDH (Millipore MAB374) were used. The membrane was washed 4 times with TBST (0.10% Tween20®; ThermoFisher 28360) for 5 minutes at room temperature, then incubated with Li-Cor anti-rabbit-800 (LI-COR 926-68070) and anti-mouse-680 (LI-COR-926-32211) diluted in Li-Cor blocking buffer with the ratio of 1:15,000 to visualize the primary antibodies for 1 hour at room temperature. Then membrane was washed 4 times with TBST (0.1% Tween20) 5 minutes. The signal intensities of bands were quantified by Li-Cor Odyssey CLX.
# The KRas and phosphor-ERK1/2 signals were normalized to the GAPDH signal for each lane and percent of DMSO values were calculated to determine the degradation of KRas and the inhibition of ERK1/2 phosphorylation upon the compound treatment.
# KRAS G12D [2] = biological target: T3, KRAS G12D; assay: In-vitro RAS-RAF binding assay (RRB), HTRF/FRET; assay type: biochemical; design: Biotinylated KRAS protein amino acids 1-169 (produced at Erasca); made in house; conditions: read-out: Inhibition of RAS-RAF Binding (in-vitro) KRAS (G12D) IC50
# Procedure, shortened: as §1
# [3] = Table 2, average of multiple runs of each compound
Compound,% CAF at 5 min (KRAS 4B G12C protein) [%],IC50 (KRAS (WT); Table 1) [nM],IC50 (KRAS (WT); [3]) [nM],"KRAS G12D degradation (Western blot), result in words (KRAS G12D [1])",IC50 (KRAS G12D [2]; Table 1) [nM],IC50 (KRAS G12D [2]; [3]) [nM],Dmax (KRAS G12D [1]) [%],DC50 (KRAS G12D [1]) [nM]
"C=CC(=O)N1CCN(c2nc(OCCN3CCC(COc4cc([C@H](C(=O)N5C[C@H](O)C[C@H]5C(=O)N[C@@H](C)c5ccc(-c6c(F)cccc6F)cc5)C(C)C)on4)CC3)nc3c(F)c(-c4nc(N)cc(C)c4C(F)(F)F)c(Cl)cc23)[C@@H](C)C1 (atropisomer, axis not shown) [Example 200, (2S,4R)-1-((R)-2-(3-((1-(2-((4-((S)-4-acryloyl-2-methylpiperazin-1-yl)-7-((R)-6-amino-4-methyl-3-(trifluoromethyl)pyridin-2-yl)-6-chloro-8-fluoroquinazolin-2-yl)oxy)ethyl)piperidin-4-yl)methoxy)isoxazol-5-yl)-3-methylbutanoyl)-N—((S)-1-(2′,6′-difluoro-[1,1′-biphenyl]-4-yl)ethyl)-4-hydroxypyrrolidine-2-carboxamide]",97,,,,,,,
"Cc1ncsc1-c1ccc([C@H](C)NC(=O)[C@@H]2C[C@@H](O)CN2C(=O)[C@@H](NC(=O)CCOCCCN2CCC[C@H]2COc2nc(N3CC4CCC(C3)N4)c3cc(Cl)c(-c4ccc(F)c5sc(N)nc45)c(F)c3n2)C(C)(C)C)cc1 [Example 4, (2S,4R)-1-[(2S)-2-[3-[3-[(2S)-2-[[7-(2-amino-7-fluoro-1,3-benzothiazol-4-yl)-6-chloro-4-(3,8-diazabicyclo[3.2.1]octan-3-yl)-8-fluoro-quinazolin-2-yl]oxymethyl]pyrrolidin-1-yl]propoxy]propanoylamino]-3,3-dimethylbutanoyl]-4-hydroxy-N-[(1S)-1-[4-(4-methylthiazol-5-yl)phenyl]ethyl]pyrrolidine-2-carboxamide]",,134,216,successful degradation,13,15.1,,
"Cc1ncsc1-c1ccc([C@H](C)NC(=O)[C@@H]2C[C@@H](O)CN2C(=O)[C@@H](NC(=O)CCOCCCN2CCC[C@H]2COc2nc(N3CC4CCC(C3)N4)c3cnc(-c4cc(O)cc5cccc(F)c45)c(F)c3n2)C(C)(C)C)cc1 [Example 6, (2S,4R)-1-[(2S)-2-[3-[3-[(2S)-2-[[4-(3,8-diazabicyclo[3.2.1]octan-3-yl)-8-fluoro-7-(8-fluoro-3-hydroxy-1-naphthyl)pyrido[4,3-d]pyrimidin-2-yl]oxymethyl]pyrrolidin-1-yl]propoxy]propanoylamino]-3,3-dimethyl-butanoyl]-4-hydroxy-N-[(1S)-1-[4-(4-methylthiazol-5-yl)phenyl]ethyl]pyrrolidine-2-carboxamide]",,126,158,Favorable results,9.5,8.21,95,255
"Cc1ncsc1-c1ccc([C@H](C)NC(=O)[C@@H]2C[C@@H](O)CN2C(=O)[C@@H](NC(=O)CCCCN2CCC[C@H]2COc2nc(N3CC4CCC(C3)N4)c3cc(Cl)c(-c4ccc(F)c5sc(N)nc45)c(F)c3n2)C(C)(C)C)cc1 [Example 7, (2S,4R)-1-[(2S)-2-[5-[(2S)-2-[[7-(2-amino-7-fluoro-1,3-benzothiazol-4-yl)-6-chloro-4-(3,8-diazabicyclo[3.2.1]octan-3-yl)-8-fluoro-quinazolin-2-yl]oxymethyl]pyrrolidin-1-yl]pentanoylamino]-3,3-dimethyl-butanoyl]-4-hydroxy-N-[(1S)-1-[4-(4-methylthiazol-5-yl)phenyl]ethyl]pyrrolidine-2-carboxamide]",,448,448,Favorable results,12,12.4,,
"Cc1ncsc1-c1ccc([C@H](CO)NC(=O)[C@@H]2C[C@@H](O)CN2C(=O)[C@@H](NC(=O)CCOCCCN2CCC[C@H]2COc2nc(N3CC4CCC(C3)N4)c3cc(Cl)c(-c4ccc(F)c5sc(N)c(C#N)c45)c(F)c3n2)C(C)(C)C)cc1 [Example 9, (2S,4R)-1-[(2S)-2-[3-[3-[(2S)-2-[[7-(2-amino-3-cyano-7-fluoro-benzothiophen-4-yl)-6-chloro-4-(3,8-diazabicyclo[3.2.1]octan-3-yl)-8-fluoro-quinazolin-2-yl]oxymethyl]pyrrolidin-1-yl]propoxy]propanoylamino]-3,3-dimethyl-butanoyl]-4-hydroxy-N-[(1R)-2-hydroxy-1-[4-(4-methylthiazol-5-yl)phenyl]ethyl]pyrrolidine-2-carboxamide]",,49.5,49.5,Favorable results,13.8,13.8,95,183
